The target of one experiment is T1, ROCK1 (Homo sapiens, UniProt Q13464).
T1 construct: T7 phage fusion (kinase-tagged phage) or DNA tag for qPCR detection
The experiment can be described thus: ROCK1 kinase binding affinity, DiscoverX KINOMEscan KdELECT. To be noted: 11-point 3-fold dilution. The method, then: (§1) 1. ROCK1 and ROCK2 kinase assays: The ROCK1 and ROCK2 kinase binding affinities of compounds in this disclosure were determined by DiscoverX's KINOMEscan™ KdELECT technology (https://www.discoverx.com/kinomescan-elect-kinase-screening-and-profiling-services): Kinase-tagged T7 phage strains were prepared in an E. coli host derived from the BL21 strain. E. coli were grown to log-phase and infected with T7 phage and incubated with shaking at 32° C. until lysis. The lysates were centrifuged and filtered to remove cell debris. The remaining kinases were produced in HEK-293 cells and subsequently tagged with DNA for qPCR detection. […] The liganded beads were blocked with excess biotin and washed with blocking buffer (SeaBlock (Pierce), 1% BSA, 0.05% Tween 20, 1 mM DTT) to remove unbound ligand and to reduce nonspecific binding. […] Kds were determined using an 11-point 3-fold compound dilution series with three DMSO control points. […] The compounds were then diluted directly into the assays such that the final concentration of DMSO was 0.9%. All reactions performed in polypropylene 384-well plate. Each was a final volume of 0.02 ml. […] The kinase concentration in the eluates was measured by qPCR.

The next experiment has as its target T2, ROCK2 (Homo sapiens, UniProt O75116).
T2 construct: T7 phage fusion (kinase-tagged phage) or DNA tag for qPCR detection
Nature of the experiment: ROCK2 kinase binding affinity, DiscoverX KINOMEscan KdELECT. The conditions noted are these: for Kd: KINOMEscan KdELECT, 11-point 3-fold dilution, read-out: Kd (μM) ROCK2; for ROCK2 Selectivity: selectivity for ROCK2 over ROCK1 from Kd. As to the method:
as §1

T1 sequence (Q13464 whole entry, the tested form may be a part): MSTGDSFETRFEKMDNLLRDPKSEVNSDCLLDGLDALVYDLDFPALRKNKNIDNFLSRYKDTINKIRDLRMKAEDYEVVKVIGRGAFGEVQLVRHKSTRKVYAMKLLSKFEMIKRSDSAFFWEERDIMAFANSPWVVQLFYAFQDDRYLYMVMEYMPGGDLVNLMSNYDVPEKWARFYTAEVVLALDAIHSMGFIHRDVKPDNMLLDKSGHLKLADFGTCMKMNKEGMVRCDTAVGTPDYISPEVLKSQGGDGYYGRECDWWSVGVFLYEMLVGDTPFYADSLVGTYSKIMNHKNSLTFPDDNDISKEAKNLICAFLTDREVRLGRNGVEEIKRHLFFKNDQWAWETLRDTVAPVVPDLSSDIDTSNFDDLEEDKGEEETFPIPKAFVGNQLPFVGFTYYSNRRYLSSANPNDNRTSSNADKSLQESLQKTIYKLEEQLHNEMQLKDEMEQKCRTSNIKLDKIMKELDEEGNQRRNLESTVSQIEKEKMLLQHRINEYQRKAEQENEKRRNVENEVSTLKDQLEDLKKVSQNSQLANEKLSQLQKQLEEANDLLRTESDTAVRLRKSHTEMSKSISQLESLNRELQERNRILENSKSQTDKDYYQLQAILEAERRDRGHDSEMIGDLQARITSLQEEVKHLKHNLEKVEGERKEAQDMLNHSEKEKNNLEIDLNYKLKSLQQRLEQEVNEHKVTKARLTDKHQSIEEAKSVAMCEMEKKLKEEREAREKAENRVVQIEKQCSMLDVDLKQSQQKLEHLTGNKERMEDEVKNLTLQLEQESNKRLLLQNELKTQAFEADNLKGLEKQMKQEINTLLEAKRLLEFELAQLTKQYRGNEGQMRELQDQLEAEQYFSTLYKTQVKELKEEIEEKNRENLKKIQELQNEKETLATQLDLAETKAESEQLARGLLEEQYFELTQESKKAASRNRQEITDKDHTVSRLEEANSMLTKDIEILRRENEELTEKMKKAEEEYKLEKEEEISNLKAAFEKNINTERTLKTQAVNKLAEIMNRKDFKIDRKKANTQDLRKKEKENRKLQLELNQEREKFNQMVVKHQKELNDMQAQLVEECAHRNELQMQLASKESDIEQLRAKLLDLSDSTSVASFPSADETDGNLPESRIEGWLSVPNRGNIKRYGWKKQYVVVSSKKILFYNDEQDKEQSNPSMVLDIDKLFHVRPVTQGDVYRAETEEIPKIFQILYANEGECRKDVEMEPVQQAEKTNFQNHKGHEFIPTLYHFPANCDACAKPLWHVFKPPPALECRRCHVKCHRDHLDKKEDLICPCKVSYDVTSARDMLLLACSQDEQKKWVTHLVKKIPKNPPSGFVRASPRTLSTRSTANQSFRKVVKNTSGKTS
T2 sequence (O75116 whole entry, the tested form may be a part): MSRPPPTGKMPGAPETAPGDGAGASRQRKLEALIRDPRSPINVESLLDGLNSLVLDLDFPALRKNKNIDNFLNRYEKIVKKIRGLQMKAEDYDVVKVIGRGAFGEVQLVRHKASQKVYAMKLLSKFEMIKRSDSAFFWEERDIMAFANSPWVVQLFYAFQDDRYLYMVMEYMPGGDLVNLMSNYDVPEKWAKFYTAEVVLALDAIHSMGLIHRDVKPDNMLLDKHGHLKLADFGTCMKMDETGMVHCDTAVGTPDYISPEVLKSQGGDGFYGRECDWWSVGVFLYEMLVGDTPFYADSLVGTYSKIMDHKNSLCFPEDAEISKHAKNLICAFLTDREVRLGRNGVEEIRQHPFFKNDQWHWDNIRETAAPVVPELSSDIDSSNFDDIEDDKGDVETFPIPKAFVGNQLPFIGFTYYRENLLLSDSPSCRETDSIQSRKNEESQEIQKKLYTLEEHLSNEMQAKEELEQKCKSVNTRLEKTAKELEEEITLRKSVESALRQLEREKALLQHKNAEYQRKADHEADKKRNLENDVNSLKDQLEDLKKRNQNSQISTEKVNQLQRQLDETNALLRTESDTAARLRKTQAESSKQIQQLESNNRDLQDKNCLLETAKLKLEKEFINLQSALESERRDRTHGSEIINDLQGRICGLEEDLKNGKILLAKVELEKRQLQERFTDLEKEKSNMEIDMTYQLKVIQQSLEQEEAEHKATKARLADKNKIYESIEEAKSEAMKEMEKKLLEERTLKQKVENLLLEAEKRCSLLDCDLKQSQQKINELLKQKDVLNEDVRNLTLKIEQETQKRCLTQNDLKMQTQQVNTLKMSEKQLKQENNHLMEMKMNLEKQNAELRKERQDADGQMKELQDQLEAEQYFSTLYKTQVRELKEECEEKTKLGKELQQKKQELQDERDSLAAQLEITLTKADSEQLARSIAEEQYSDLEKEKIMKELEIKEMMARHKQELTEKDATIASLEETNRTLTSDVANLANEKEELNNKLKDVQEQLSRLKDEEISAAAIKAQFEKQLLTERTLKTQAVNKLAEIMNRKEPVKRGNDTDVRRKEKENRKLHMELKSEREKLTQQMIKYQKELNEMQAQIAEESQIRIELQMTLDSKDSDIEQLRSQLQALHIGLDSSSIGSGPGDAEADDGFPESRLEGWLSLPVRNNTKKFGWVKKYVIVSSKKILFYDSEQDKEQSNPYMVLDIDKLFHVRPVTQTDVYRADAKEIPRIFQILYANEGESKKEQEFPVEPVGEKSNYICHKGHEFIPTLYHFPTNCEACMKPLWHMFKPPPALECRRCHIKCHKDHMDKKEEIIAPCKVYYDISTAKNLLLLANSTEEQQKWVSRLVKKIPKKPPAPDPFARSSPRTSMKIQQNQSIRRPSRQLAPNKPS

With `Cc1cnc(CNc2nccc(-c3nccc(C#Cc4ccc5[nH]ncc5c4)n3)n2)nc1` [Ex. 4, 4-((1H-Indazol-5-yl)ethynyl)-N-((5-methylpyrimidin-2-yl)methyl)-[2,4′-bipyrimidin]-2′-amine], the equilibrium dissociation constant (Kd) on ROCK1 is 1 to 9.9 µM; on ROCK2, 0.1 to 0.99 µM. For the same molecule, on ROCK2, the “ROCK2 Selectivity” value is listed as “* (<50-fold selectivity for ROCK2)”.
Consider `C(#Cc1ccnc(-c2ccnc(NC[C@@H]3CCOC3)n2)n1)c1ccc2[nH]ncc2c1` [Ex. 58, (S)-4-((1H-Indazol-5-yl)ethynyl)-N-((tetrahydrofuran-3-yl)methyl)-[2,4′-bipyrimidin]-2′-amine], for which the Kd at ROCK1 lay in the range of 1 to 9.9 µM. Also, at ROCK2, the Kd was under 0.01 µM and the “ROCK2 Selectivity” value is on record as “**** (>500-fold selectivity for ROCK2)”.
For `O=C(CNc1nccc(-c2nccc(C#Cc3ccc4[nH]ncc4c3)n2)n1)N1CC[C@H](O)C1` [Ex. 1, (S)-2-((4-((1H-Indazol-5-yl)ethynyl)-[2,4′-bipyrimidin]-2′-yl)amino)-1-(3-hydroxypyrrolidin-1-yl)ethanone], the Kd on ROCK1 was in the range of 0.1 to 0.99 µM. For the same molecule, on ROCK2, the Kd was under 0.01 µM and the “ROCK2 Selectivity” value is given as “** (50 to 150-fold selectivity for ROCK2)”.
Taken in the same sequence, the figures for `C(#Cc1ccnc(-c2ccnc(NCc3nc4ccccc4[nH]3)n2)n1)c1ccc2[nH]ncc2c1` [Ex. 57, N-((1H-Benzo[d]imidazol-2-yl)methyl)-4-((1H-indazol-5-yl)ethynyl)-[2,4′-bipyrimidin]-2′-amine] were 10 to 100 µM, 0.01 to 0.099 µM and “**** (>500-fold selectivity for ROCK2)”.
`C(#Cc1ccnc(-c2ccnc(NCC3CCCC3)n2)n1)c1ccc2[nH]ncc2c1` [Ex. 44, 4-((1H-Indazol-5-yl)ethynyl)-N-(cyclopentylmethyl)-[2,4′-bipyrimidin]-2′-amine]: the values for the dissociation constant (Kd) at ROCK1 and at ROCK2 were 10 to 100 µM and 0.01 to 0.099 µM, respectively. Also, the “ROCK2 Selectivity” value on ROCK2 was “*** (151 to 500-fold selectivity for ROCK2)”.
Turning to `Fc1ncccc1CNc1nccc(-c2nccc(C#Cc3ccc4[nH]ncc4c3)n2)n1` [Ex. 6, 4-((1H-Indazol-5-yl)ethynyl)-N-((2-fluoropyridin-3-yl)methyl)-[2,4′-bipyrimidin]-2′-amine], the Kd on ROCK1 is 0.01 to 0.099 µM; at ROCK2, under 0.01 µM. In addition, the “ROCK2 Selectivity” value on ROCK2 is on record as “* (<50-fold selectivity for ROCK2)”.
The molecule `COC(=O)[C@H]1CC[C@@H](Nc2nccc(-c3nccc(C#Cc4ccc5[nH]ncc5c4)n3)n2)CC1` [Ex. 91, (1s,4s)-Methyl 4-((4-((1H-indazol-5-yl)ethynyl)-[2,4′-bipyrimidin]-2′-yl)amino)cyclohexanecarboxylate] showed a dissociation constant Kd at ROCK1 of 0.1 to 0.99 µM. On ROCK2, the Kd was under 0.01 µM and the “ROCK2 Selectivity” value is on record as “** (50 to 150-fold selectivity for ROCK2)”.
For `C(#Cc1ccnc(-c2ccnc(NCc3ncc[nH]3)n2)n1)c1ccc2[nH]ncc2c1` [Ex. 23, N-((1H-Imidazol-2-yl)methyl)-4-((1H-indazol-5-yl)ethynyl)-[2,4′-bipyrimidin]-2′-amine], the Kd on ROCK1 is 1 to 9.9 µM. Moreover, on ROCK2, the Kd lay in the range of 0.01 to 0.099 µM and the “ROCK2 Selectivity” value is “** (50 to 150-fold selectivity for ROCK2)”.
Taken in the same sequence, the figures for `C(#Cc1ccnc(-c2ccnc(N[C@@H]3CCOC3)n2)n1)c1ccc2[nH]ncc2c1` [Ex. 59, (R)-4-((1H-Indazol-5-yl)ethynyl)-N-(tetrahydrofuran-3-yl)-[2,4′-bipyrimidin]-2′-amine] were 1 to 9.9 µM, under 0.01 µM and “*** (151 to 500-fold selectivity for ROCK2)”.
Taken in the same sequence, the figures for `C(#Cc1ccnc(-c2ccnc(NCc3ccccn3)n2)n1)c1ccc2[nH]ncc2c1` [Ex. 22, 4-((1H-Indazol-5-yl)ethynyl)-N-(pyridin-2-ylmethyl)-[2,4′-bipyrimidin]-2′-amine] were 1 to 9.9 µM, 0.01 to 0.099 µM and “** (50 to 150-fold selectivity for ROCK2)”.

(Values after patent publication US20230295131A1, “INHIBITORS OF RHO-ASSOCIATED COILED-COIL KINASE” (Angion Biomedica Corp., priority 2020, published 2023).)
